According to the PolyMetriX glass transition set:
± gives the standard deviation of the reports.

| glass transition temperature | Compound |
| --- | --- |
| 221.00 °C | *Oc1ccccc1S(=O)(=O)c1ccc(*)cc1 (repeat unit) |
| 16.2 °C | *CC(*)C(=O)Oc1ccc(C(=O)OCc2ccccc2)cc1 (repeat unit) |
| 76.8 °C | *COc1ccc(C(C)(C)c2ccc(Oc3ccc(*)n3-c3ccc([N+](=O)[O-])cc3)cc2)cc1 (repeat unit) |
| 34.00 °C | *c1ccc2c(c1)C(CCCCCCCC)(CCCCCCCC)c1cc(-c3cc(F)c(*)cc3F)ccc1-2 (repeat unit) |
| 70.00 °C | *C(=O)OCC(C)(C)COC(=O)N1CCN(*)CC1 (repeat unit) |
| 127.00 °C | *CC(*)c1ccccc1C(=O)OCC(C)C (repeat unit) |
| 76.00 °C | *CC(O)CN(CCO)S(=O)(=O)c1ccc(-c2ccc(S(=O)(=O)N(CCO)CC(O)COc3ccc(C(C)(C)c4ccc(O*)cc4)cc3)cc2)cc1 (repeat unit) |
| 373.00 °C | *c1ccc(-c2ccc(-n3c(=O)c4cc5c(=O)n(*)c(=O)c5c(C(F)(F)F)c4c3=O)cc2C(F)(F)F)c(C(F)(F)F)c1 (repeat unit) |
| 36.00 °C | *Oc1ccc(C(=O)OC(C)COC(C)COC(C)COC(=O)c2ccc(OC(=O)c3ccc(C(*)=O)cc3)cc2)cc1 (repeat unit) |
| 256.50 °C | *c1ccc(Oc2ccc(S(=O)(=O)c3ccc(Oc4ccc(N5C(=O)C6CCC(C7CCC8C(=O)N(*)C(=O)C8C7)CC6C5=O)cc4)cc3)cc2)cc1 (repeat unit) |
| 205.00 °C | *c1ccc(Oc2ccc(C(=O)c3ccc(C(=O)c4ccc(Oc5ccc(-c6cc(*)n(-c7ccccc7)n6)cc5)cc4)cc3)cc2)cc1 (repeat unit) |
| 44.00 °C | *CC(*)c1cc(C(=O)OCCCCCCCCCC)ccc1-c1ccc(OCCCCCCCC)cc1 (repeat unit) |
| 220.00 °C | *Nc1ccc(NC(=O)c2ccc(NC(=O)CCCCCCCCC(=O)Nc3ccc(C(*)=O)cc3)cc2)cc1C(=O)OCCCCCCCCCCCCCCCC (repeat unit) |
| -42.00 °C | *CC(*)c1ccc(COCCOCCCCCCCC)cc1 (repeat unit) |
| 70.00 °C | *CCCOCCCCOCCCN1C(=O)c2ccc(C(=O)Oc3ccc(-c4ccc(OC(=O)c5ccc6c(c5)C(=O)N(*)C6=O)cc4)cc3)cc2C1=O (repeat unit) |
| -3.00 °C | *CC(*)c1ccc(OCCOCCOC(C)=O)cc1 (repeat unit) |
| 150.00 °C | *Oc1cc(Oc2ccc(C(C)(C)c3ccc(*)cc3)cc2)cc([N+](=O)[O-])c1 (repeat unit) |
| 84.00 °C | *CCCCCCCOC(=O)Nc1ccc(Cc2ccc(NC(=O)O*)cc2)cc1 (repeat unit) |
| 142.00 °C | *Oc1ccc(C(C)(CC)c2ccc(OC(*)=O)c(Cl)c2)cc1Cl (repeat unit) |
| 54.2 °C | *CC(*)C(=O)OCCCOc1ccc(-c2ccc(C#N)cc2)cc1 (repeat unit) |

| glass transition temperature | Compound |
| --- | --- |
| 238.00 °C | *c1cccc(Cc2cccc(N3C(=O)c4ccc([Si](C)(C)c5ccc6c(c5)C(=O)N(*)C6=O)cc4C3=O)c2)c1 (repeat unit) |
| 45.00 °C | *CC(*)c1ccccc1C(=O)OCCCCCC (repeat unit) |
| 254.00 °C | *CC(=O)Nc1ccc(Oc2c(F)c(F)c(Oc3ccc(NC(=O)c4ccc5c(c4)C(=O)N(*)C5=O)cc3)c(F)c2F)cc1 (repeat unit) |
| -10.00 °C | *OCC(F)(F)C(F)(F)C(F)(F)COc1nc(F)c(F)c(OCC(F)(F)C(F)(F)C(F)(F)COc2c(F)c(*)nc(F)c2F)c1F (repeat unit) |
| 300.00 ± 9 °C | *C(=O)c1ccc2c(c1)C(=O)N(c1cccc(N3C(=O)c4ccc(*)cc4C3=O)c1)C2=O (repeat unit) |
| 167.00 °C | *Oc1ccc(NC(=O)c2ccc(Oc3ccc(C(C)(C)c4cccc(C(C)(C)c5ccc(Oc6ccc(C(=O)Nc7ccc(Oc8ccc(-c9ccc(*)cc9)cc8)cc7)cc6)cc5)c4)cc3)cc2)cc1 (repeat unit) |
| -9.00 °C | *O[Si](*)(C)CCCCCCOc1ccc(C(=O)Oc2ccc(C(=O)OCC(C)CC)cc2)cc1 (repeat unit) |
| 118.00 °C | *CC(F)(F)C1(F)CC(C(O)(C(F)(F)F)C(F)(F)F)CC1* (repeat unit) |
| 44.00 °C | *CC(*)(C)C(=O)OCCCCCC(=O)Oc1ccc(OC(=O)c2ccc(OCCCCCC)cc2)cc1 (repeat unit) |
| 56.00 °C | *CC(*)(C)C(=O)OCCCCCCCCCCOc1ccc(/N=N/c2ccccc2)cc1 (repeat unit) |
| 92.00 °C | *Oc1c(-c2ccccc2)cc(Cc2cc(-c3ccccc3)c(OC(=O)CCCCCCCCC(*)=O)c(-c3ccccc3)c2)cc1-c1ccccc1 (repeat unit) |
| 202.00 °C | *Nc1ccc(-c2ccc(NC(=O)c3cc(NC(=O)c4ccc(NC(=O)C(C)N5C(=O)c6ccccc6C5=O)cc4)cc(C(*)=O)c3)cc2)cc1 (repeat unit) |
| 60.80 °C | *CC(*)C(=O)OCCOC(=O)c1cc([N+](=O)[O-])cc([N+](=O)[O-])c1 (repeat unit) |
| 162.00 °C | *Oc1ccc(C(C)(C)c2ccc(Oc3ccc(C(=O)c4ccc(Oc5ccc(C(=O)c6ccc(*)cc6)cc5)cc4)cc3)cc2)cc1 (repeat unit) |
| 186.00 °C | *c1ccc(-c2nc3cc(S(=O)(=O)c4ccc5nc(-c6ccccc6)c(-c6ccc(-n7c(=O)c8cc9c(=O)n(*)c(=O)c9cc8c7=O)cc6)nc5c4)ccc3nc2-c2ccccc2)cc1 (repeat unit) |
| 53.40 °C | *CCCCCCNC(=O)CCCCC(=O)NCC(=O)N* (repeat unit) |
| 77.00 °C | *CCOCCOC(=O)c1ccc(N/C=N/c2ccc(C(=O)O*)cc2)cc1 (repeat unit) |
| 165.00 °C | *CCOC(=O)Nc1ccc(C)c(NC(=O)OCCOc2cc([N+](=O)[O-])ccc2/N=N/c2cn(*)c3ccc(-c4ccccc4)cc23)c1 (repeat unit) |
| 182.00 °C | *Oc1ccc(C(c2ccccc2)c2ccc(OC(*)=O)cc2C)c(C)c1 (repeat unit) |
| 250.00 °C | *Oc1c(Cl)cc(C(=C(Cl)Cl)c2cc(Cl)c(OC(*)=O)c(Cl)c2)cc1Cl (repeat unit) |

| Compound | glass transition temperature |
| --- | --- |
| *CC(OC)C(C(=O)OC)C(*)C(=O)OC (repeat unit) | 59.50 °C |
| *C(=O)OCCN(CCOC(=O)c1ccc2c(c1)C(=O)N(c1cccc(N3C(=O)c4ccc(*)cc4C3=O)c1)C2=O)c1ccc(/N=N/c2ccc([N+](=O)[O-])cc2)cc1 (repeat unit) | 210.00 °C |
| *CC(*)(CC(=O)OCC)C(=O)O (repeat unit) | 135.00 °C |
| *C(=O)c1ccc2c(c1)C(=O)N(c1ccc(CP(=O)(OCCCl)OCCCl)c(N3C(=O)c4ccc(*)cc4C3=O)c1)C2=O (repeat unit) | 261.00 °C |
| *C(F)(F)C(*)(F)OC(F)C(F)F (repeat unit) | 35.00 °C |
| *CCCCSSCCCCO* (repeat unit) | -76.00 °C |
| *C/C=C/C[Si](*)(C=C)C=C (repeat unit) | -65.00 °C |
| *CCCCCCOC(=O)C(CCCCCP(=O)(OCC)OCC)C(=O)OCCCCCCOc1ccc(-n2on2-c2ccc(O*)cc2)cc1 (repeat unit) | 7.00 °C |
